Holding throughout (format): cell-based
One assay deals with AML cell line OCI-AML3. Put plainly: Cell viability (CellTiterGlo, 3 days), single agents and combination, in OCI-AML3. As to conditions: Homo sapiens, OCI-AML-3, 72 h; OCI-AML3, single agent, 3 days incubation, CTG signal. (In general: ATP-based viability assays read luminescence as a measure of living cells.)
The test system of the next assay is AML cell line HL-60. The experiment in a line: Cell viability (CellTiterGlo, 3 days), single agents and combination, in HL-60. As to conditions: Homo sapiens, 72 h; HL-60, single agent, 3 days incubation, CTG signal.
In the next assay the test system is AML cell line MV4;11. The experiment in a line: Cell viability (CellTiterGlo, 3 days), single agents and combination, in MV4;11. As to conditions: Homo sapiens, 72 h; MV4;11, single agent, 3 days incubation, CTG signal.
For the next assay, the system named is AML cell line EOL-1. Put plainly: Cell viability (CellTiterGlo, 3 days), single agents and combination, in EOL-1. As to conditions: Homo sapiens, EOL1, 72 h; EOL-1, single agent, 3 days incubation, CTG signal.

Usually IC50 stands for the concentration that inhibits the measured activity by half.

`Nc1ncn([C@@H]2O[C@H](CO)[C@@H](O)[C@H]2O)c(=O)n1` [5-azacitidine, azacitidine]: the IC50 is 7100 nM with AML cell line OCI-AML3, greater than 10000 nM in the assay on AML cell line HL-60, 689 nM in the assay on AML cell line MV4;11 and 187 nM in the assay with AML cell line EOL-1.
Taken in the same sequence, the figures for `Cc1c(N(C(=O)c2cc(-c3cc(Cl)ccc3C(=O)N3Cc4ccccc4C[C@H]3CN3CCOCC3)n(C)c2C)c2ccc(O)cc2)cc(C#N)n1C` [Compound A, 5-(5-chloro-2-{[(3S)-3-(morpholin-4-ylmethyl)-3,4-dihydroisoquinolin-2(1H)-yl]carbonyl}phenyl)-N-(5-cyano-1,2-dimethyl-1H-pyrrol-3-yl)-N-(4-hydroxyphenyl)-1,2-dimethyl-1H-pyrrole-3-carboxamide] were 5690 nM, 3100 nM, 3 nM and 18 nM.

These data come from patent US20230270748A1, “COMBINATION OF A BCL-2 INHIBITOR AND A HYPOMETHYLATING AGENT FOR TREATING CANCERS, USES AND PHARMACEUTICAL COMPOSITIONS THEREOF” (LES LABORATOIRES SERVIER, priority 2020, published 2023).
